# Data taken from US5306710A, “Method for treating endotoxin shock with CRF” (Regents of the University of California, priority 1992, dated 1994).
# No end group written: not given here.
# Assays:
# ACTH = settings: prior art report; cited from earlier work
# blood pressure = settings: prior art report; cited from earlier work
# rat pawskin = settings: mediators injected into the rat pawskin; previously shown; cited from earlier work
# [1] = test system: rat brain after cold injury (brain edema); assay: Freeze injury to cerebral cortex, water and sodium content as index of brain edema; format: in vivo; settings: CRF 30 μg/kg s.c. 2×, tissues 3 hr after cold injury, ± S.E.M., N = 5
# Protocol: In a second set of experiments, the brain surface, namely the cerebral cortex, was injured by freezing and the water and sodium content were measured in the cerebral cortex and in the basal ganglia, a part of the brain away from the freeze zone. The water and sodium content of the brain tissue served as an index of brain edema. After freeze injury, the water and sodium content of the cerebral cortex were evaluated relative to non-frozen tissues. CRF administered in two separate doses of 30 μg/kg subcutaneously, one dose 15 min. before the injury and the second dose 90 min. after the first dose, inhibited the two indices of brain edema.
# Male SpragueDawley rats, 300-325 g, anesthetized with
# ketamineacepromazine, were injected saline or CRF (30 μg/kg s.c.
# 2×) and injury to cerebral cortex was produced by applying a cold
# probe to the skull for 1 min. Brain tissues were obtained 3 hr later and
# analyzed for water and sodium content.
# [2] = test system: rat abdominal muscle after celiotomy (vascular leakage); assay: Vascular leakage after celiotomy (4 cm midline incision through abdominal muscle wall), Monastral blue; format: in vivo; settings: for Area / Intensity / Lesion Size: tissues 0.5 hr after surgery
# Protocol: Experiments were conducted on male Sprague-Dawley rats 243±15 gm (S. D., Simonsen Labs., Gilroy, Calif.) anesthetized with sodium pentobarbital, 60 mg/kg i.p. Monastral blue, 60 mg/kg i.v., was injected 0.2 ml/100 g, 3 min. before a 4 cm midline incision through the abdominal muscle wall (celiotomy). Saline or CRF was administered to randomizd pairs with N=8 rats per group. The size of the lesion, measured as area in mm^2, an its light intensity, were quantified using the JAVA image-analysis software program. The light intensity, given in arbitrary units, was internally calibrated using Monastral blue solutions (1-30 mg/ml) placed on white filter paper. Values are mean ±S. E. M. FIG. 2 illustrates the respective amount of vascular permeability for one pair of rats (control and treated). Tables III and IV set out data from these experiments.
# CRF: injected at various doses subcutaneously 30 min
# before a 4 cm midline incision, tissues taken 0.5 hr
# CRF: 30 μg/kg s.c. injected 2 hr before a 4 cm midline
# incision, tissues taken 0.5 hr after surgery
# [3] = test system: rat brain after cold injury (vascular permeability); assay: Freeze (cold) injury to brain, Monastral blue vascular leakage; format: in vivo
# Excerpt: An in vivo model of injury to study brain edema has been developed as a reproducible edema model, which has the features of immediate cortical damage followed by the subsequent development of brain edema. This model is described by Chan et al., Brain Research 277, pp. 329-337 (1983). The model uses rats which are anesthetized. A 2.5 cm incision is made over the sagittal suture and the bone of the right hemisphere exposed. A 60 mm^2 plate attached to a brass cup filled with dry ice-acetone mixture, with a temperature of -50° C., is applied to the rat skull for one minute. The animals are sacrificed at various intervals after the onset of cold-injury. A dye is administered intravenously before the freezing. Cortical slices are then obtained of the brain.
# 16 male rats were randomly divided into eight pairs and one rat in each pair received either saline or CRF (subcutaneously twice at 30 μg/kg, 30 min and 10 min before cold injury). The animals were anesthetized with sodium pentobarbital, 60 mg/kg intraperitoneally, and injected with Monastral blue, 60 mg/kg intravenously. A cold probe was applied onto the skull for […] and the brains taken out 1 hour after cold injury. The staining of brain tissues with Monastral blue, a colloidal pigment that gets trapped between the albuminal surface of the endothelial cell and the basement membrane, was proportional to the degree of vascular leakage. The results from the first pair are shown as FIG. 1.
# The size of the lesion, measured as area in mm^2, and the degree of staining intensity, were quantified using an image-analysis software program called JAVA (Jandel Corporation, San Rafeal, Calif.). The stain intensity, given in arbitrary units, was internally calibrated using Monastral blue solutions (1-30 mg/ml) placed on white filter paper. Values are mean ±S. E. M.
# PAF-acether = assay: Vascular leakage produced by PAF-acether injected subcutaneously into the abdomen; format: in vivo, rat; settings: CRF 30 μg/kg s.c. 30 min before PAF-acether
# Protocol: (§1) CRF: 30 μg/kg s.c. injected 30 min before subcutaneous
# (§2) injection of PAF-acether (1 μg/0.1 ml/rat) into the
# (§3) abdomen; muscle removed 0.5 hr later.
# [4] = as above; format: in vivo, rat; settings: CRF 30 μg/kg s.c. 30 min before PAF-acether 1 μg/0.1 ml/rat s.c.; muscle removed 0.5 hr later
# Protocol: as §1, §2, §3
# [5] = CRF 15 μg/kg s.c. 30 min before incision
# [6] = CRF 30 μg/kg s.c. 30 min before incision
# [7] = CRF 30 μg/kg s.c. 2 hr before incision
# [8] = CRF 60 μg/kg s.c. 30 min before incision
substance,measurement,setting,value
"sauvagine (QGPPISIDLSLELLRKMIEIEKQEKEKQQAANNRLLLDTI; not fully specified; ends and bridges not checked; UniProt P01144 1-40, looked up) [40 amino acid peptide generally similar to CRF]",effect on ACTH secretion,ACTH,stimulating the secretion of ACTH and -endorphin
same,effect on blood pressure,blood pressure,lowering blood pressure in mammals
"oCRF: ovine (sheep) CRF, synthetic, disclosed in U.S. Pat. No. 4,415,558 (SQEPPISLDLTFHLLREVLEMTKADQLAQQAHSNRKLLDIA; not fully specified; ends and bridges not checked; UniProt P01142 148-188, looked up)",effect on blood pressure,blood pressure,lower blood pressure
"Corticotropin-Releasing Factor (SEEPPISLDLTFHLLREVLEMARAEQLAQQAHSNRKLMEII; not fully specified; ends and bridges not checked; UniProt P06850 154-194, looked up) [CRF]","effect on edema-producing properties of inflammatory mediators (serotonin, substance P, bradykinin, neurotensin, histamine)",rat pawskin,antagonize the edema-producing properties of these mediators
same,"SODIUM, cerebral cortex",[1]; injured cerebral cortex,271 ± 8 mEg/kg dry wt
same,"WATER CONTENT, cerebral cortex",[1]; injured cerebral cortex,77 ± 4%
same,"SODIUM, basal ganglia",[1]; non-injured basal ganglia,215 ± 9 mEg/kg dry wt
same,"WATER CONTENT, basal ganglia",[1]; non-injured basal ganglia,76 ± 1%
same,lesion size relative to that of the saline-treated group,[2]; [5],63%
same,Area,[2]; [5],505 ± 16 mm^2
same,Intensity,[2]; [5],2.0 ± 0.03 arbitrary units
same,Lesion Size,[2]; [5],1031 ± 44
same,lesion size relative to that of the saline-treated group,[2]; [6],42%
same,Area,[2]; [6],361 ± 18 mm^2
same,Intensity,[2]; [6],1.9 ± 0.05 arbitrary units
same,Lesion Size,[2]; [6],676 ± 47
same,lesion size relative to that of the saline-treated group,[2]; [7],59%
same,Area,[2]; [7],477 ± 31 mm^2
same,Intensity,[2]; [7],1.9 ± 0.03 arbitrary units
same,Lesion Size,[2]; [7],919 ± 51
same,lesion size relative to that of the saline-treated group,[2]; [8],29%
same,Area,[2]; [8],257 ± 3 mm^2
same,Intensity,[2]; [8],1.8 ± 0.05 arbitrary units
same,Lesion Size,[2]; [8],468 ± 19
same,blinded observer's correct assignment of brains to saline or CRF group,"[3]; eight pairs of rats, more damaged vs less damaged brain",8 out of 8
same,lesion size relative to that of the saline-treated group,"[3]; rat, CRF 30 μg/kg s.c. twice before cold injury",44%
same,Intensity (stain intensity),"[3]; rat, CRF 30 μg/kg s.c. twice, 30 min and 10 min before cold injury, brains taken 1 hour after injury, mean ± S.E.M.",2.0 ± 0.05 arbitrary units
same,muscle lesion size relative to that of the saline-treated control group,PAF-acether,44%
same,Intensity,[4],1.4 ± 0.05
